Experimental data published in patent US20260231914A1, “BRAIN-DERIVED NEUROTROPHIC FACTOR-NANO LUCIFERASE TRANSGENIC RODENTS AND METHODS OF USE THEREOF” (University of Florida Research Foundation, Incorporated, priority 2023, published 2026).
Entries after “also recorded” stand apart in the source; their conditions may differ. Where a name gives a salt, the structure may show the parent alone.

Assays:
BDNF-NLuc [1] = assay: LOPAC library screening, NLuc activity in cultured Bdnf^NLuc/+ neurons (HTS); type: cell-based, mouse; details: 24 hours; for hit status in repeat screening with 4 different plates of cultured neurons (FIG. 5D): different batch of neurons; for hit: NLuc activity in neurons increased to more than 3× standard deviations over the mean: LOPAC compounds 10 μM, DIV7 neurons, FIGS. 5A-5D
Procedure: We tested the scalability of the Bdnf^NLuc/+ phenotypic assay by screening the 1280-compound Library of Pharmacologically Active Compounds (LOPAC). We dissected out cortices and hippocampi of 8 Bdnf^NLuc/+ embryos at E18.5 from 2 timed pregnant mice, prepared a suspension of dissociated neurons (10,000 cells/80 μl), transferred 40 ml of the suspension into each of eight 50-ml Falcon centrifuge tubes, used the liquid handling device to plate cells from each aliquot of 40-ml cell suspension onto a 384-well plate (80 μl/well), and cultured neurons.
Using 2 sets of 4 plates each of DIV7 neuronal cultures, we removed 20 μl of medium from each well and then added each LOPAC compound in 20 μl of fresh medium to a well to reach a final concentration of 10 μM. LOPAC compounds (320) were added to wells in the middle 20 columns of each plate, while the first 2 and last 2 columns were used for vehicle controls and positive controls. After 24 hours of incubation, we inverted plates to dump culture medium and then measured NLuc activity in neurons. The NLuc activity in each well is normalized to the average of NLuc activities in 1280 compound-containing wells. […] Compounds that increased the NLuc activity to more than 3× standard deviations (3×SDs) over the mean were considered a hit, and in this case, there are 7 hits in the first set of plates (FIG. 5A) and 10 hits in the second set of plates (FIG. 5B), 7 of which are shared. When the average of duplicate assays for each compound is plotted, we identify the same hits from the second set of plates, with the exception of hit 8 (FIG. 5C). To test the repeatability of the assay in different batches of cultured neurons, we repeated the screening with 4 different plates of cultured neurons.
(§1) Compound treatment and LOPAC library screening. Compound treatment or library screening in primary cultures of Bdnf^NLuc/+ mouse neurons on day 7 in vitro (DIV7) was performed by replacing one-quarter of the culture medium with equal volume of compound-containing medium to yield the desired final concentration for each compound. For the library of pharmacologically active compounds (LOPAC, Millipore), compounds in the original source plates were first dosed using a pintool into 384-well plates containing feeding medium to create a secondary source plate with compounds at 40 μM using the Beckman Coulter's Biomek NXP automated liquid handler (Beckman). 1.6% DMSO and 40 μM (+)-Bay K8644 (Sigma) were added to the first two and the last two columns of the secondary source plate as vehicle and positive control, respectively. Compounds in the secondary source plates were then added to culture neurons in the 384-well plates using a Versette liquid handler. Neurons were treated with compounds for 24 hours in a humidified incubator set to 37° C. and 5% CO2. Luciferase activity was detected the next day using Nano-Glo Luciferase Assay System (Promega) according to the manufacturer's instruction. Luminescence intensity was measured using a microplate reader (FLUOstar Omega, BMG LABTECH) at 460 nm.

BDNF-NLuc [2] = assay: NLuc activity (BDNF-NLuc levels) in cultured Bdnf^NLuc/+ neurons and media after compound treatment; type: cell-based, mouse
Procedure: We tested our assay for suitability for HTS by using two positive controls. […] The assay produces a good Z′ for both 10 mM KCl and 10 μM DM (FIGS. 4A-4C) (Zhang et al., 1999). To measure NLuc activities in cells, we can simply invert a plate to dump culture medium and then add the Promega Nano-Glo mix, whereas we must transfer a certain amount of culture medium to a new plate and then add the Promega Nano-Glo mix to measure NLuc activities in media.
Primary cortical/hippocampal cell culture and maintenance. Brains of E18.5 Bdnf^NLuc/+ embryos were collected and placed in ice-cold Ca^2+ and Mg^2+ free Hanks' balanced salt solution (HBSS) supplemented with Penicillin-Streptomycin (Pen/Strep, 50 U/mL, Gibco), 25 mM D-glucose, 1 mM pyruvate, and 20 mM HEPES. Cortices and hippocampi were isolated and digested with papain (~12 U/mL, Worthington) at 37° C. for 20 min. Brain tissues were washed with media containing Neurobasal (Gibco), 4% fetal bovine serum (FBS, HyClone), and Pen/Strep. The tissue was gently triturated and allowed to settle, and the supernatant was filtered through a 40 μm cell strainer. Cells were centrifuged at 420×g for 4 min and resuspended in plating media [Neurobasal, 2% FBS, 2% B27 (Gibco), 2 mM GlutaMAX (Gibco), and Pen/Strep]. 1.0×10^4 or 4.5×10^4 cells were plated onto white Greiner μClear 384-well plate (80 μl/well) or PDL-coated 96-well plate (200 μl/well), respectively. Sixteen hours after plating, 75% of the plating media was replaced by feeding media [Neurobasal, 2% B27, 2 mM GlutaMAX, and Pen/Strep] supplemented with 16 μM 5-fluoro-2′-deoxyuridine (FUdR) to prevent overgrowth of non-neuronal cells. Plating and media changes were performed using a Versette liquid handler (Thermo Fisher Scientific) or an 8-channel pipette for the 384-well and 96-well plates, respectively. Cells were maintained at 37° C. and 5% CO2 incubator.
as §1

Bdnf gene expression = details: cited from earlier work; for Bdnf gene expression: literature reports, no concentration given
Bdnf mRNA = assay: qRT-PCR of Bdnf mRNA and Bdnf mRNA variants in DIV7 Bdnf^NLuc/+ neurons; type: cell-based, mouse; details: 5 μM, 24 hours
Procedure: We treated DIV7 Bdnf^NLuc/+ neurons in a 24-well plate with 5 μM GR127935-HCl for 24 hours, isolated total RNA from cultured cells in each well, and ran quantitative RT-PCR (qRT-PCR) to determine levels of total Bdnf mRNA (coding), as well as four major Bdnf mRNA variants (exon 1, exon 2, exon 4, and exon 6).
qRT-PCR validation of HTS hit. DIV7 Bdnf^NLuc/+ neurons were treated in a 24-well plate with 5 μM GR127935-HCl for 24 hours, after which total RNA was isolated from cultured cells in each well and used to perform quantitative RT-PCR (qRT-PCR) to determine the levels of total Bdnf mRNA (coding), as well as four major Bdnf mRNA variants (exon 1, exon 2, exon 4, and exon 6). Levels of Bdnf mRNA variants were quantified using qRT-PCR with 18S rRNA as the internal control.

[3] = system: protein transport from the ER to the Golgi complex; details: Helms and Rothman, 1992; cited from earlier work
[4] = KCl 10 mM added DIV7, measured DIV8 (24 hours)
[5] = DM 2-10 μM added DIV7, measured DIV8, listed as DM

SMILES	hit status in repeat screening with 4 different plates of cultured neurons (FIG. 5D) (BDNF-NLuc [1]; 10 μM)	hit: NLuc activity in neurons increased to more than 3× standard deviations over the mean (BDNF-NLuc [1])	Bdnf gene expression (Bdnf gene expression)	other results
CCCc1c(-c2ccc(O)cc2)nn(-c2ccc(O)cc2)c1-c1ccc(O)cc1 [1,3,5-Tris(4-hydroxyphenyl)-4-propyl-1H-pyrazole]	rediscovered	above dotted line		hit: NLuc activity in neurons increased to more than 3× standard deviations over the mean (BDNF-NLuc [1]; listed as PPT): hits
COC(=O)C1=C(C)NC(C)=C([N+](=O)[O-])C1c1ccccc1C(F)(F)F (stereo not shown) [Bay K8644]	rediscovered	hits and above dotted line	stimulates Bdnf gene expression	BDNF levels (NLuc activity) (BDNF-NLuc [2]; Bay K8644 10 μM, DIV7, 24 hours, 3 batches of cultured neurons): increased BDNF levels
COc1ccc(NC(=O)c2ccc(-c3ccc(-c4noc(C)n4)cc3C)cc2)cc1N1CCN(C)CC1 [GR127935-HCl]	rediscovered	above dotted line		hit: NLuc activity in neurons increased to more than 3× standard deviations over the mean (BDNF-NLuc [1]; listed as GR127935 hydrochloride hydrate): hits; Bdnf mRNA variant exon 1 (Bdnf mRNA): stimulating transcription; Bdnf mRNA variant exon 2 (Bdnf mRNA): stimulating transcription; Bdnf mRNA variant exon 4 (Bdnf mRNA): stimulating transcription; total Bdnf mRNA (coding) levels (Bdnf mRNA; 18S rRNA internal control): elevated Bdnf mRNA levels
[Cl-].[K+] [KCl]			stimulates Bdnf gene expression	levels of BDNF-NLuc in media (NLuc activity) (BDNF-NLuc [2]; [4]): elevated; also recorded: increased; levels of BDNF-NLuc in neurons (NLuc activity) (BDNF-NLuc [2]; [4]): elevated; also recorded: increased; Bdnf gene expression in cultured neurons (Bdnf gene expression; KCl 50 mM for 90 min (Ghosh et al., 1994; Tao et al., 2002)): increases Bdnf gene expression
C#CCN1C(C)=C(C(=O)OC)C(c2cccc([N+](=O)[O-])c2)C(C(=O)OCC)=C1C (stereo not shown) [N-propargyl nitrendipine]		hits and above dotted line		
CCC(C)N(C)C(=O)c1cc2ccccc2c(-c2ccccc2Cl)n1 (stereo not shown) [PK11195]		above dotted line		
C[C@H]1CCC/C=C/[C@@H]2C[C@H](O)C[C@H]2[C@H](O)/C=C/C(=O)O1 [brefeldin A]	rediscovered	hits and above dotted line		protein transport from the ER to the Golgi complex [3]: inhibit protein transport from the ER to the Golgi complex
CC1(C)[C@H](C(=O)O[C@H](C#N)c2cccc(Oc3ccccc3)c2)[C@@H]1C=C(Br)Br [deltamethrin]			stimulate Bdnf gene expression	levels of BDNF-NLuc in media (NLuc activity) (BDNF-NLuc [2]; [5]): stimulated BDNF production; also recorded: increased; levels of BDNF-NLuc in neurons (NLuc activity) (BDNF-NLuc [2]; [5]): stimulated BDNF production; also recorded: increased
COc1ccc(-c2ccc(=N)n(CCCC(=O)O)n2)cc1 [gabazine]		above dotted line		hit status on the average of duplicate assays (FIG. 5C) (BDNF-NLuc [1]; 10 μM, average of 2 sets of plates): exception
CCCCCCCCCCCCCC(=O)O[C@@H]1[C@@H](C)[C@@]2(O)[C@@H](C=C(CO)C[C@]3(O)C(=O)C(C)=C[C@@H]23)[C@@H]2C(C)(C)[C@]12OC(C)=O [phorbol-12-myristate 13-acetate]	just under the threshold	hits and above dotted line		effect on Bay K8644-induced Bdnf gene expression (Bdnf gene expression; Zafra et al., 1992): enhance the effect of Bay K8644 on Bdnf gene expression
